Measured values published in US8592181B2, “Brazzein variant having higher sweetness and method for preparing multi-variant” (Chung-Ang University Industry-Academy Cooperation Foundation, priority 2009, dated 2013).

Test system: human sense of taste
Assay: Sweetness measured by human sense of taste (20 trained subjects, minimum concentration at which sweetness is first sensed)
Type: in vivo
Conditions: for Multiples of increased sweetness to minor-type brazzein: relative to minor-type brazzein; for Minimum stimulation level in which one senses sweetness for first time: 20 trained subjects; for Sweetness ratios of sucrose (1 g/100 ml) to primary brazzein variants (minor-type brazzein: 2000) / Sweetness ratios of sucrose (1 g/100 ml) to brazzein multi-variants: relative to 1 g/100 ml sucrose threshold
Protocol: Since the recombinant brazzein according to the present invention is not a sucrose-based compound having a cyclic ring, the sweetness of the recombinant brazzein was not measured using a saccharometer. Therefore, the activity of the recombinant brazzein was measured using the human sense of taste. Sugar content measurement was performed on 20 subjects who were trained to feel substantially the same minimum concentration of sucrose in which they could sense sweetness using a sucrose solution. That is, a concentration of each brazzein variant in which the subjects could sense sweetness for the first time was measured. Also, a sweetness ratio of the sucrose solution to the wild-type brazzein was 1 g/100 ml, which was a minimum stimulation level in which the subjects could sense sweetness. Also, a sweetness ratio of the minor-type brazzein protein to the wild-type brazzein was 500 μg/100 ml, which was a minimum stimulation level in which the subjects could sense sweetness. Therefore, the sweetness was calculated using the sweetness ratios (That is, 1/0.0005=2000 for the minor-type brazzein).
Also, the brazzein multi-variants were measured for activity (sweetness) in the same manner as in Example 3-1.

Substance	Multiples of increased sweetness to minor-type brazzein (primary brazzein variants)	Minimum stimulation level in which one senses sweetness for first time (primary brazzein variants)	Sweetness ratios of sucrose (1 g/100 ml) to primary brazzein variants (minor-type brazzein: 2000)	Multiples of increased sweetness to minor-type brazzein (brazzein multi-variants)	Sweetness ratios of sucrose (1 g/100 ml) to brazzein multi-variants
H30E: primary brazzein variant: His at position 30 of minor-type brazzein substituted with Glu (DKCKKVYENYPVSKCQLANQCNYDCKLRKEARSGECFYDEKRNLQCICDYCEY; Brazzein(H30E)) [Brazzein H30E]	0.16	3,000 μg/100 ml	334	–	–
K29A: primary brazzein variant: Lys at position 29 of minor-type brazzein substituted with Ala (DKCKKVYENYPVSKCQLANQCNYDCKLRAHARSGECFYDEKRNLQCICDYCEY; Brazzein(K29A)) [Brazzein K29A]	0.05	10,000 μg/100 ml	100	–	–
H30R_E40R: secondary brazzein variant of minor-type brazzein with substitutions H30R and E40R (DKCKKVYENYPVSKCQLANQCNYDCKLRKRAKSGECFYDRKRNLQCICDYCEY; Brazzein(H30R_E40R)) [Brazzein H30R_E40R]	–	–	–	5	10,000
K29D: primary brazzein variant: Lys at position 29 of minor-type brazzein substituted with Asp (DKCKKVYENYPVSKCQLANQCNYDCKLRDHARSGECFYDEKRNLQCICDYCEY; Brazzein(K29D)) [Brazzein K29D]	0.05	10,000 μg/100 ml	100	–	–
R42E: primary brazzein variant: Arg at position 42 of minor-type brazzein substituted with Glu (DKCKKVYENYPVSKCQLANQCNYDCKLRKHARSGECFYDEKENLQCICDYCEY; Brazzein(R42E)) [Brazzein R42E]	0.05	10,000 μg/100 ml	100	–	–
K5E: primary brazzein variant: Lys at position 5 of minor-type brazzein substituted with Glu (DKCKEVYENYPVSKCQLANQCNYDCKLRKHARSGECFYDEKRNLQCICDYCEY; Brazzein(K5E)) [Brazzein K5E]	0.08	6,000 μg/100 ml	167	–	–
E35A: primary brazzein variant: Glu at position 35 of minor-type brazzein substituted with Ala (DKCKKVYENYPVSKCQLANQCNYDCKLRKHARSGACFYDEKRNLQCICDYCEY; Brazzein(E35A)) [Brazzein E35A]	0.05	10,000 μg/100 ml	100	–	–
E35H: primary brazzein variant: Glu at position 35 of minor-type brazzein substituted with His (DKCKKVYENYPVSKCQLANQCNYDCKLRKHARSGHCFYDEKRNLQCICDYCEY; Brazzein(E35H)) [Brazzein E35H]	0.08	6,000 μg/100 ml	167	–	–
H30D: primary brazzein variant: His at position 30 of minor-type brazzein substituted with Asp (DKCKKVYENYPVSKCQLANQCNYDCKLRKDARSGECFYDEKRNLQCICDYCEY; Brazzein(H30D)) [Brazzein H30D]	0.16	3,000 μg/100 ml	334	–	–
R32K: primary brazzein variant: Arg at position 32 of minor-type brazzein substituted with Lys (DKCKKVYENYPVSKCQLANQCNYDCKLRKHAKSGECFYDEKRNLQCICDYCEY; Brazzein(R32K)) [Brazzein R32K]	0.16	3,000 μg/100 ml	334	–	–
E35R: primary brazzein variant: Glu at position 35 of minor-type brazzein substituted with Arg (DKCKKVYENYPVSKCQLANQCNYDCKLRKHARSGRCFYDEKRNLQCICDYCEY; Brazzein(E35R)) [Brazzein E35R]	0.08	6,000 μg/100 ml	167	–	–
E35D_E40A: secondary brazzein variant of minor-type brazzein with substitutions E35D and E40A (DKCKKVYENYPVSKCQLANQCNYDCKLRKHAKSGDCFYDAKRNLQCICDYCEY; Brazzein(E35D_E40A)) [Brazzein E35D_E40A]	–	–	–	5	10,000
E40H: primary brazzein variant: Glu at position 40 of minor-type brazzein substituted with His (DKCKKVYENYPVSKCQLANQCNYDCKLRKHARSGECFYDHKRNLQCICDYCEY; Brazzein(E40H)) [Brazzein E40H]	2	250 μg/100 ml	4,000	–	–
R32E: primary brazzein variant: Arg at position 32 of minor-type brazzein substituted with Glu (DKCKKVYENYPVSKCQLANQCNYDCKLRKHAESGECFYDEKRNLQCICDYCEY; Brazzein(R32E)) [Brazzein R32E]	0.05	10,000 μg/100 ml	100	–	–
K5R: primary brazzein variant: Lys at position 5 of minor-type brazzein substituted with Arg (DKCKRVYENYPVSKCQLANQCNYDCKLRKHARSGECFYDEKRNLQCICDYCEY; Brazzein(K5R)) [Brazzein K5R]	0.05	10,000 μg/100 ml	100	–	–
H30A: primary brazzein variant: His at position 30 of minor-type brazzein substituted with Ala (DKCKKVYENYPVSKCQLANQCNYDCKLRKAARSGECFYDEKRNLQCICDYCEY; Brazzein(H30A)) [Brazzein H30A]	0.08	6,000 μg/100 ml	167	–	–
K29R: primary brazzein variant: Lys at position 29 of minor-type brazzein substituted with Arg (DKCKKVYENYPVSKCQLANQCNYDCKLRRHARSGECFYDEKRNLQCICDYCEY; Brazzein(K29R)) [Brazzein K29R]	0.05	10,000 μg/100 ml	100	–	–
K5D: primary brazzein variant: Lys at position 5 of minor-type brazzein substituted with Asp (DKCKDVYENYPVSKCQLANQCNYDCKLRKHARSGECFYDEKRNLQCICDYCEY; Brazzein(K5D)) [Brazzein K5D]	0.08	6,000 μg/100 ml	167	–	–
R32D: primary brazzein variant: Arg at position 32 of minor-type brazzein substituted with Asp (DKCKKVYENYPVSKCQLANQCNYDCKLRKHADSGECFYDEKRNLQCICDYCEY; Brazzein(R32D)) [Brazzein R32D]	0.05	10,000 μg/100 ml	100	–	–
R42A: primary brazzein variant: Arg at position 42 of minor-type brazzein substituted with Ala (DKCKKVYENYPVSKCQLANQCNYDCKLRKHARSGECFYDEKANLQCICDYCEY; Brazzein(R42A)) [Brazzein R42A]	0.05	10,000 μg/100 ml	100	–	–
K29E: primary brazzein variant: Lys at position 29 of minor-type brazzein substituted with Glu (DKCKKVYENYPVSKCQLANQCNYDCKLREHARSGECFYDEKRNLQCICDYCEY; Brazzein(K29E)) [Brazzein K29E]	0.05	10,000 μg/100 ml	100	–	–
